# In ChEMBL document CHEMBL4619778, “Oligopeptides as Neuropeptide Y Y4 Receptor Ligands: Identification of a High-Affinity Tetrapeptide Agonist and a Hexapeptide Antagonist” (J Med Chem, 2020):
# Bridge positions count the residues as written; N and C are the ends. Square brackets hold non-standard residues; d marks the D form. Peptide text beside a SMILES is read from it. I, II: the chains in the order shown. ξ: configuration not given here. ξDap = NCC(N)C(=O)O
# Columns and labels:
# [1] = biological target: T1, Neuropeptide Y receptor type 4 (Homo sapiens, UniProt P50391); test: Displacement of [3H]UR-KK200 from human Y4 receptor expressed in CHO cells co-expressing Gqi5-mtAEQ measured after 90 mins by scintillation counting analysis; assay type: cell-based
# [2] = biological target: T1, Neuropeptide Y receptor type 4; test: Agonist activity at human Y4R expressed in HEK293T cells co-expressing ARRB2 assessed as induction of beta-arrestin2 recruitment measured for 40 mins by D-luciferin based luminescence assay; assay type: cell-based, HEK-293T
# Homo sapiens [3] = organism: Homo sapiens; test: Selectivity ratio of Ki for displacement of [3H]propionyl-pNPY from human Y2 receptor expressed in CHO cells to Ki for displacement of [3H]UR-KK200 from human Y4 receptor expressed in CHO cells co-expressing Gqi5-mtAEQ; assay type: cell-based
# [4] = biological target: T1, Neuropeptide Y receptor type 4; test: Agonist activity at human Y4 receptor expressed in CHO cells co-expressing Gqi5-mtAEQ assessed as intracellular calcium mobilization measured for 43 secs in presence of coelenterazine by aequorin-reporter gene based luminescence assay; assay type: functional, cell-based
# Homo sapiens [5] = organism: Homo sapiens; test: Selectivity ratio of Ki for displacement of [3H]propionyl-pNPY from human Y5 receptor expressed in human HEC1B cells to Ki for displacement of [3H]UR-KK200 from human Y4 receptor expressed in CHO cells co-expressing Gqi5-mtAEQ; assay type: cell-based
# [6] = biological target: T2, Neuropeptide Y receptor type 5 (Homo sapiens, UniProt Q15761); test: Displacement of [3H]propionyl-pNPY from human Y5 receptor expressed in human HEC1B cells; assay type: cell-based
# T2 sequence (Q15761 whole entry): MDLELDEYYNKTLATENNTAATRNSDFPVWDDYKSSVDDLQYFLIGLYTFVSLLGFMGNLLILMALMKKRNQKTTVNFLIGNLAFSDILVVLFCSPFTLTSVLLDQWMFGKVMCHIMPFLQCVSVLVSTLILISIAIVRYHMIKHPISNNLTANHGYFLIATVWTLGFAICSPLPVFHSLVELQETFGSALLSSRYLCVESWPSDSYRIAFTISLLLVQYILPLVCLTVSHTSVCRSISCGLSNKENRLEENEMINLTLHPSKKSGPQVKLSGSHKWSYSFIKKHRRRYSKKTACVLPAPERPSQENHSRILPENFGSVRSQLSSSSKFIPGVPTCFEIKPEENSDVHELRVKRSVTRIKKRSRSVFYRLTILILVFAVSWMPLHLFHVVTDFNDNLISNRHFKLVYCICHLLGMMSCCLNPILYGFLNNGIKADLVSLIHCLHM
# [7] = biological target: T1, Neuropeptide Y receptor type 4; test: Agonist activity at human Y4R expressed in HEK293T cells co-expressing ARRB1 assessed as induction of beta-arrestin1 recruitment measured for 40 mins by D-luciferin based luminescence assay; assay type: cell-based, HEK-293T
# [8] = biological target: T3, Neuropeptide Y receptor type 2 (Homo sapiens, UniProt P49146); test: Displacement of [3H]propionyl-pNPY from human Y2 receptor expressed in CHO cells measured after 2 hrs by microbeta liquid scintillation counting analysis; assay type: cell-based
# T3 sequence (P49146 whole entry): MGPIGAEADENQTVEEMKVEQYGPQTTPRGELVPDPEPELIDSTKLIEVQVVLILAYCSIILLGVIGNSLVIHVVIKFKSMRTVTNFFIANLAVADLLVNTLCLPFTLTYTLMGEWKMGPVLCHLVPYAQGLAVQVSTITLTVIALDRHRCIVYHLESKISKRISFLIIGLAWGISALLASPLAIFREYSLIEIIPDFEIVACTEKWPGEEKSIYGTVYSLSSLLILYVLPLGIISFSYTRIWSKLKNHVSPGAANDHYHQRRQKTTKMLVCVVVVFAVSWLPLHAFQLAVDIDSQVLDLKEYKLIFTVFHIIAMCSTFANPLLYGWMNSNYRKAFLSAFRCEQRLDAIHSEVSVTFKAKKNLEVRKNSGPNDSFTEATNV
# Homo sapiens [9] = organism: Homo sapiens; test: Selectivity ratio of Ki for displacement of [3H]UR-MK299 from Y1 receptor in human SK-N-MC cells to Ki for displacement of [3H]UR-KK200 from human Y4 receptor expressed in CHO cells co-expressing Gqi5-mtAEQ; assay type: cell-based
# [10] = biological target: T4, Neuropeptide Y receptor type 1 (Homo sapiens, UniProt P25929); test: Displacement of [3H]UR-MK299 from Y1 receptor in human SK-N-MC cells; assay type: cell-based
# T4 sequence (P25929 whole entry): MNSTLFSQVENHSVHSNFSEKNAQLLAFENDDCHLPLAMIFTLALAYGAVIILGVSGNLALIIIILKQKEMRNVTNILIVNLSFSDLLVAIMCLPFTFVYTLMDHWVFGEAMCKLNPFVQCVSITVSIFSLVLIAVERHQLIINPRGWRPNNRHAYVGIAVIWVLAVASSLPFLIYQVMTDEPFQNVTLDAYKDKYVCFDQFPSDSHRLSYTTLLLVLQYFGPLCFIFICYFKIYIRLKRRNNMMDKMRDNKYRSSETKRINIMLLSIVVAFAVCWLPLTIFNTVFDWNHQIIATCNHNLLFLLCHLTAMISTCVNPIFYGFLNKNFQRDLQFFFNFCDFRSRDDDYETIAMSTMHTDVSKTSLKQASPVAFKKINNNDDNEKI
# T1 sequence (P50391 whole entry): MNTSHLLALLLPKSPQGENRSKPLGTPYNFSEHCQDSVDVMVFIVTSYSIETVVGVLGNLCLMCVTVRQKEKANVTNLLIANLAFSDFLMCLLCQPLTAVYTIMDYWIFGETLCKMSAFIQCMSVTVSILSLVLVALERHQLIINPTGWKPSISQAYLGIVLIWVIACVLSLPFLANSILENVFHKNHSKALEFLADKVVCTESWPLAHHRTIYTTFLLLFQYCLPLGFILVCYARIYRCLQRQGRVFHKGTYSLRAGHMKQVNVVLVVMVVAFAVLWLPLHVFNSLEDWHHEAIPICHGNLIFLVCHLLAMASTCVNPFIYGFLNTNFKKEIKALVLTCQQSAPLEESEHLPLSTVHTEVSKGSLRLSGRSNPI
Ki ([1]; read-out: Ki) [nM],Ki ([1]; read-out: pKi (converted)) [nM],EC50 ([2]; read-out: EC50) [nM],EC50 ([4]; read-out: EC50) [nM],Ki ([6]; read-out: Ki) [nM],Ki ([6]; read-out: pKi (converted)) [nM],EC50 ([7]; read-out: EC50) [nM],"Ki ([8]; cho, read-out: Ki) [nM]",Ki ([8]; read-out: pKi (converted)) [nM],Ki ([10]; read-out: pKi (converted)) [nM],"Ki ([10]; sk-n-mc, read-out: Ki) [nM]",EC50 ([2]; read-out: pEC50 (converted)) [nM],EC50 ([4]; read-out: pEC50 (converted)) [nM],EC50 ([7]; read-out: pEC50 (converted)) [nM],Ki ([10]; read-out: Ki) [nM],Ki ([8]; read-out: Ki) [nM],Compound,Ratio Ki (Homo sapiens [3]),Ratio Ki (Homo sapiens [5]),Ratio Ki (Homo sapiens [9])
38,30.9,360,380,> 1000,> 1000,520,> 1000,> 1000,> 1000,> 1000,,,,,,Ac-RGYRLRW-NH2,26,> 26,> 26
120,,> 30000,> 30000,,,> 30000,,,,,> 31600,> 31600,> 31600,,,CC(=O)N[C@@H](CCCNC(=N)N)C(=O)N[C@@H](Cc1ccc(O)cc1)C(=O)N[C@@H](CCCNC(N)=O)C(=O)N[C@@H](CC(C)C)C(=O)N[C@@H](CCCNC(=N)N)C(=O)N[C@@H](Cc1ccc(O)cc1)C(N)=O,,,
3.9,,1200,,> 10000,> 10000,2500,> 1000,> 1000,> 3160,,,,,> 3000,,CN[C@@H](CCCNC(=N)N)C(=O)N[C@@H](CC(C)C)C(=O)N[C@@H](CCCNC(=N)N)C(=O)N[C@@H](Cc1ccc(O)cc1)C(N)=O,> 260,> 2600,> 770
17,14.1,510,2500,> 10000,> 10000,600,,> 3160,> 3160,,,,,> 3000,> 3000,Ac-RRLRY-NH2,> 180,> 590,> 180
4.8,4.47,150,,> 10000,> 10000,100,,> 3160,> 3160,,,,,> 3000,> 3000,CC(C)C[C@H](NC(=O)[C@H](CCCNC(=N)N)NC(=O)[C@H](Cc1ccc(O)cc1)NC(=O)[C@@H](N)CCCNC(N)=O)C(=O)N[C@@H](CCCNC(=N)N)C(=O)N[C@@H](Cc1ccc(O)cc1)C(N)=O,> 630,> 2100,> 630
8.9,8.71,320,550,> 1000,> 1000,550,> 10000,> 10000,> 1000,> 1000,,,,,,Ac-RFRLRY-NH2,> 1100,> 110,> 110
350,,> 30000,> 30000,,,> 30000,,,,,> 31600,> 31600,> 31600,,,N=C(N)NCCC[C@H](NC(=O)[C@H](Cc1c[nH]c2ccccc12)NC(=O)[C@@H](N)CCCNC(=N)N)C(=O)N[C@@H](Cc1ccc(O)cc1)C(N)=O (H-RWRY-NH2),,,
4,,430,620,> 10000,> 10000,460,,> 3160,> 316,,,,,> 300,> 3000,CC(C)C[C@H](NC(=O)[C@H](CCCNC(=N)N)NC(=O)[C@H](Cc1ccc(O)cc1)NC(=O)[C@H](CCCNC(=N)N)NC(=O)CCC(=O)O)C(=O)N[C@@H](CCCNC(=N)N)C(=O)N[C@@H](Cc1ccc(O)cc1)C(N)=O,> 750,> 2500,> 75
93,,> 30000,,,,> 30000,,,,,> 31600,,> 31600,,,CC(C)C[C@@H](NC(=O)[C@@H](N)CCCNC(=N)N)C(=O)N[C@@H](CCCNC(=N)N)C(=O)N[C@@H](Cc1ccc(O)cc1)C(N)=O,,,
190,,> 30000,> 30000,,,> 30000,,,,,> 31600,> 31600,> 31600,,,H-RYRGRY-NH2,,,
1.4,,35,120,> 1000,> 1000,67,> 1000,> 1000,> 1000,> 1000,,,,,,CC(=O)N[C@@H](CCCNC(=N)N)C(=O)N[C@@H](Cc1c[nH]c2ccccc12)C(=O)N[C@@H](CCCNC(=N)N)C(=O)N[C@@H](CC(C)C)C(=O)N[C@@H](CCCNC(=N)N)C(=O)N[C@@H](Cc1ccc(O)cc1)C(N)=O,> 710,> 710,> 710
1.7,1.62,140,250,> 1000,> 1000,160,> 10000,> 10000,> 1000,> 1000,148,,,,,H-WRLRY-NH2,> 5900,> 590,> 590
1800,,> 30000,> 30000,,,> 30000,,,,,> 31600,> 31600,> 31600,,,Ac-RYRPRY-NH2,,,
1300,,> 30000,,,,> 30000,,,,,> 31600,,> 31600,,,CC(C)C[C@H](NC(=O)[C@@H](N)CCCNC(=N)N)C(=O)N[C@H](CCCNC(=N)N)C(=O)N[C@@H](Cc1ccc(O)cc1)C(N)=O,,,
0.36,,,,,,,,,,,,,,,,"CC[C@H](C)[C@H](N)C(=O)N[C@H]1CCC(=O)NCC(C(=O)N[C@@H](Cc2ccc(O)cc2)C(=O)N[C@@H](CCCNC(=N)N)C(=O)N[C@@H](CC(C)C)C(=O)N[C@@H](CCCNC(=N)N)C(=O)N[C@@H](Cc2ccc(O)cc2)C(N)=O)NC(=O)[C@@H]2CCCN2C(=O)[C@@H](NC(=O)[C@@H](N)[C@@H](C)CC)CCC(=O)NCC(C(=O)N[C@@H](Cc2ccc(O)cc2)C(=O)N[C@@H](CCCNC(=N)N)C(=O)N[C@@H](CC(C)C)C(=O)N[C@@H](CCCNC(=N)N)C(=O)N[C@@H](Cc2ccc(O)cc2)C(N)=O)NC(=O)[C@@H]2CCCN2C1=O (stereo partly specified) (I: H-IEP[ξDap]YRLRY-NH2 / II: H-IEP[ξDap]YRLRY-NH2; amide I:2-II:4, I:4-II:2)",,,
63,56.2,930,,,,1070,,,> 3160,,,,,> 3000,,CC(C)C[C@H](NC(=O)[C@H](CCCNC(=N)N)NC(=O)[C@H](Cc1ccc(O)cc1)NC(=O)[C@@H](N)CCCNC(=N)N)C(=O)N[C@@H](CCCNC(N)=O)C(=O)N[C@@H](Cc1ccc(O)cc1)C(N)=O,,,> 48
7.4,,4800,,,,2400,,,,,4680,,,,,CC(C)C[C@H](NC(=O)[C@H](N)CCCNC(=N)N)C(=O)N[C@@H](CCCNC(=N)N)C(=O)N[C@@H](Cc1ccc(O)cc1)C(N)=O,,,
240,229,> 30000,> 30000,,,> 30000,,,,,> 31600,> 31600,> 31600,,,H-RYRARY-NH2,,,
1500,,> 30000,,,,> 30000,,,,,> 31600,,> 31600,,,CC(C)C[C@H](NC(=O)[C@@H](N)CCCNC(=N)N)C(=O)N[C@@H](CCCNC(=N)N)C(=O)N[C@H](Cc1ccc(O)cc1)C(N)=O,,,
